Source: patent US11298395B2, “Isolates from spent turmeric for the management of rheumatoid arthritis” (SAMI LABS LIMITED, priority 2017, dated 2022)

Test system: Adjuvant induced rheumatoid arthritis in rats
Assay: In vivo anti-arthritic activity: Freund's complete adjuvant induced arthritis in rats
Parameters: species or system Male Wistar rats
Conditions: reference group, dose not given
Method: Male Wistar rats weighing […] were orally dosed with 100, 200 and 400 mg/kg of spent turmeric polysaccharide from day 1-day 28. The animals were given intra-dermal injection of Freund's complete adjuvant in the paw at a dosage level of 0.1 ml on days 7, 15, 21 and 28 of the study to induce arthritis. Oedema induced by the adjuvant was measured as increase in paw volumes on days 7, 15, 21 and 28. At the end of the study, animals were sacrificed and blood and tissue collected for analyzing the inflammatory parameters. The inflammatory parameters studied included, • a. Inflammation in the paws • b. Blood Biochemistry • c. Lipid Per oxidation • d. Reduced Glutathione in serum • e. Superoxide dismutase activity in serum • f. Levels of Acid and Alkaline phosphatase • g. TNF-α levels • h. IL6 levels

## CC(=O)Oc1ccccc1C(=O)O [ASA, Acetyl salicylic acid]
  ACP (acid phosphatase): 6.71 ± 0.06 IU/ml
  ALP (alkaline phosphatase): 104.18 ± 0.94 IU/ml
  LIPID PEROXIDATION malondialdehyde formed: 18.19 ± 0.10 nm/g tissue
  Platelets: 232 ± 2.65 10^9/L
  Red blood corpuscles-RBCs: 4.70 ± 0.04 10^6 Cells /μl
  Reduced Glutathione: 595.69 ± 0.64 μg/g tissue
  SUPEROXIDE DISMUTASE: 16.39 ± 0.01 g activity in tissue/min
  White blood corpuscles-WBCs: 7800.0 ± 85.63 Cells/μl
